Experimental data: US4203980A, “Benzylpyrimidine derivatives” (Hoffmann-La Roche Inc., priority 1977, dated 1980)

Target: DHFR (E. coli) (Escherichia coli, UniProt P0ABQ4)
Assay: 50% inhibition of the bacterial dihydrofolic acid reductase (DHFR), E. coli
Format: biochemical
Description: The compounds of formula I have antibacterial activity. More specifically, the compounds of formula I inhibit the bacterial dihydrofolic acid reductase (DHFR) and, moreover, potentiate the activity of sulfonamides and other dihydrofolic acid synthetase inhibitors. Exemplary of the sulfonamides which are potentiated by the compounds provided by the present invention are sulfadiazine, sulfadimethoxine, sulfadoxine, sulfamethoxazole, sulfisoxazole, sulfamoxole, 3-sulfanilamido-4,5-dimethylisoxazole, sulfalene, sulfamerazine, sulfameter, sulfamethazine and 6-methoxy-4-sulfanilamido-pyrimidine. […] Quantitatively, however, compared with known compounds, the compounds of formula I of the present invention are characterized by lower 50% inhibitory concentrations of the bacterial DHFR, for example, in the case of E. coli, and by substantially higher Q-values, that is 50% inhibition of the DHFR in the case of rats/50% inhibition of the DHFR in the case of E. coli, which represents a measurement of the selectivity of the inhibition of the bacterial DHFR.

Row | Structure (SMILES) | IC50 [nM]
1 | C=C(C)c1c(OCC)cc(Cc2cnc(N)nc2N)cc1OCC [Compound 1, 2,4-diamino-5-(3,5-diethoxy-4-isopropenylbenzyl)-pyrimidine] | 2.2
2 | C=C(C)c1c(OC)cc(Cc2cnc(N)nc2N)cc1OC [Compound 2, 2,4-diamino-5-(4-isopropenyl-3,5-dimethoxybenzyl)-pyrimidine] | 3.4
3 | C=C(C)c1c(OC)cc(Cc2cnc(N)nc2N)cc1OCC [Compound 3, 2,4-diamino-5-(3-ethoxy-4-isopropenyl-5-methoxybenzyl)-pyrimidine] | 3.2
